In US4585773A, “Isoindolinyl-alkyl-piperazines” (Bristol-Myers Company, priority 1984, dated 1986):
Counter-ions that a name gives are not always drawn. Like-named read-outs stand apart in the source and are kept apart here.

How the values were obtained:
α2 = test: in vitro α2 binding, [3H]Clonidine (Table IV); settings: for IC50: [3H]Clonidine, brain tissue, 50 mM Hepes.KOH, pH 7.4, read-out: α2 Binding IC50
Protocol: (§1) In this Example the compounds of Examples I-XI were tested in vitro for α1 and α2 binding. The compound of Example I was tested as its monochloride 2-propanolate hydrate, i.e. as C22 […] CLN4 O4 S .HCl.0.2(CH3)2 CHOH 0.15H2 O. In the testing specific brain tissues were prepared as sources of binding sites. Aliquots of the washed members are incubated with a low concentration of […]. After incubation at suitable temperature, the reaction mixture is treated to separate the membrane-bound radioligand Radioactivity is measured. Linear regression analysis of the probit value for the percent of binding occurring in the presence of varying concentrations of the compound of interest plotted against the concentration of the compound yields concentrations which inhibit 50% specific binding, the IC50. The assay buffer is 50 mM Hepes.KOH, pH 7.4. The ligand is [^3 H]WB-4101 from New England Nuclear for α1 and [^3 H]Clonidine from New England Nuclear for α2. The results are considered against phentolamine methanesulfonate (Reference) which is considered a good α-binder.

α1 = test: in vitro α1 binding, [3H]WB-4101 (Table IV); settings: [3H]WB-4101, brain tissue, 50 mM Hepes.KOH, pH 7.4; read-out: α1 Binding IC50
Protocol: as §1

[1] = conscious rat diuretic screen of Lipschitz (Table I); assay type: in vivo, rat (female Sprague Dawley; male Okamoto-Aoki); settings: female Sprague Dawley rats; for response vs control in vivo at 30 mg/kg / response vs control in vivo at 3 mg/kg: Rattus norvegicus, po
Protocol: With respect to diuretic utility there can be mentioned the conscious rat diuretic screen of Lipschitz, et al. (J. Pharmacol. Exp. Therap. 79, 97-110 (1943)). In this test, dose response assays of diuretic, natruiretic and kaliuretic activity are determined by oral administration of the test substance. The compounds synthesized in Examples I-XI were tested for diuretic […]. The compound of Example I was tested as its monohydrochloride 2-propanolate hydrate, i.e. as C22 […] ClN4 O4 S.HCl. 0.2(CH3)2 CHOH.0.15H2 O. Testing was carried out by the diuretic screen of Lipschitz, et al. described previously. In Table I below Volume Ratio is the ratio of total volume excreted for the test comuound compared to the total volume excreted for the control, Na^+ Ratio is the Na^+ excreted for the test compound compared to the Na^+ excreted for the control, K^+ Ratio is the K^+ excreted for the test compound compared to the K^+ excreted for the control. Female Sprague Dawley rats were used in Test Nos. 1, 2, 6, 7, 11-29. Male Okamoto-Aoki rats were used in Test Nos. 3-5 and 8-10 and testing for antihypertensive activity was carried out simultaneously on the Test Nos. 3-5 rats. In some instances, compounds were retested at the same dose level.

[2] = test system: α blocking activity (phenylephrine); test: in vivo α blocking activity, phenylephrine (PE) as α-agonist (Table III); parameters: species or system rat; ED50: unit not given beside the values; settings: for in vivo α blocking activity (in words): conclusion from Table III
Protocol: (§2) In this example the compounds of Examples I (modified), II, III, V, VI, VII, VIII, IX and XI were tested in rats for in vivo α blocking activity according to methodology described at page 312 of Deitchman, et al., Journal of Pharmacological Methods, 3, 311-321 (1980). In this test phenylephrine (PE below) or norepinephrine (NE below) was administered as an α-agonist to the rats before and after dosing with the test drug and the average interpolated dose or PE/NE effecting a 50 mm Hg increase in mean arterial blood pressure was determined. Table III below records the results. In such Table, ED50 stands for such average interpolated dose and Average Dose Shift stands for the average ratio of ED50 after drug administration to ED50 before drug administration. The compound of Example I was tested as its monochloride 2-propanolate hydrate, i.e. as C22 H27 ClN4 O4 S.HCl 0.2(CH3)2 CHOH.0.15H2 O in Tests 1-5 and as the 3/4 mole hydrochloride, i.e. C22 H27 ClN 4 O4 S.3/4HCL in Tests 2a and 3a. The route was intravenous except in the case of the runs of Test Nos. 2a, 3, 3a, 26-29 the route was oral.

[3] = test system: Spontaneously Hypertensive rat; test: antihypertensive activity, Spontaneously Hypertensive Rat (Table II); assay type: in vivo; settings: for antihypertensive effect (in words): conclusion from Table II (SHR, and DOCA for Examples I-IV)
Protocol: Spontaneously Hypertensive Rat Male rats weighing 300-400 g, previously conditioned to the procedure, are prewarmed in a heating chamber (30° C.) for 10-20 min. and subsequently restrained in a wire holder at that temperature. Systolic blood pressure and heart rate are measured by the tailcuff technique using a pneumatic pulse transducer and a biotachometer before, and 2, 4, and 24 hours after oral administration of vehicle (0.25% Methocel in water) or test compounds suspended in vehicle at a dose volume equivalent to 5 ml/kg. Blood pressure and heart rate data are reported as changes from zero-hour measurements with vehicle control groups run periodically to confirm that the vehicle has no effect. Testing was carried out on the compounds of Examples I-XII for antihypertensive activity. In the case of all the compounds testing was carried out on the Spontaneously Hypertensive rat as described hereinbefore. In the case of the compounds of Examples I-IV testing was also carried out on the DOCA-salt Hypertensive Rat. The compound of Example I was tested as its monochloride 2-propanolate hydrate, i.e. as C22 […] ClN4 O4 S.HCl.0.2(CH3)2 CHOH.0.15H2 O in Tests 1-5; and as the 3/4 mole hydrochloride, i.e. C22 […] ClN4 O4 S: 3/4 HCl in Tests 3a, 4a, 5a-5d. Test results are set forth in Table II below wherein SHR stands for Spontaneously Hypertensive rat, DOCA stands for DOCA-salt Hypertensive Rat, ΔBP stands for the change in systolic blood pressure in mm Hg, ΔHR stands for the change in mean heart rate in beats per minute and the times set forth are the times after dosing. A peak change in ΔBP of more than 20 is considered as indicating activity.

[4] = test system: DOCA-salt Hypertensive Rat; test: antihypertensive activity, DOCA-salt Hypertensive Rat (Table II); assay type: in vivo; settings: DOCA
Protocol: DOCA-salt Hypertensive Rat
Male rats initially weighing 80-100 g, are made hypertensive by surgically implanting two 50 mg pellets of deoxycorticosterone acetate (DOCA) under the skin of the abdomen of each rat and providing 1% saline ad libitum. After three weeks, the 1% saline is replaced with distilled water. One week later, animals are anesthetized with methoxyflurane and a catheter advanced into the aorta via the left common corotid artery to record mean arterial blood pressure (MABP) and heart rate. The heparin-filled catheter is passed beneath the skin and exteriorized behind the head. Two days later, MABP and heart rate are determined before and four hours after oral administration of vehicle (0.25% Methocel in 0.9% saline) or test compound suspended in vehicle at a dose volume equivalent to 5 ml/kg.
Testing was carried out on the compounds of Examples I-XII for antihypertensive activity. In the case of all the compounds testing was carried out on the Spontaneously Hypertensive rat as described hereinbefore. In the case of the compounds of Examples I-IV testing was also carried out on the DOCA-salt Hypertensive Rat. The compound of Example I was tested as its monochloride 2-propanolate hydrate, i.e. as C22 H27 ClN4 O4 S.HCl.0.2(CH3)2 CHOH.0.15H2 O in Tests 1-5; and as the 3/4 mole hydrochloride, i.e. C22 H27 ClN4 O4 S: 3/4 HCl in Tests 3a, 4a, 5a-5d. Test results are set forth in Table II below wherein SHR stands for Spontaneously Hypertensive rat, DOCA stands for DOCA-salt Hypertensive Rat, ΔBP stands for the change in systolic blood pressure in mm Hg, ΔHR stands for the change in mean heart rate in beats per minute and the times set forth are the times after dosing. A peak change in ΔBP of more than 20 is considered as indicating activity.

[5] = test system: α blocking activity (norepinephrine); test: in vivo α blocking activity, norepinephrine (NE) as α-agonist (Table III); parameters: species or system rat; settings: ED50 after/before drug
Protocol: as §2

[6] = 30 mg/kg oral, read-out: K+ Ratio
[7] = 30 mg/kg oral, read-out: Na+ Ratio
[8] = 30 mg/kg oral, read-out: Volume Ratio
[9] = 3 mg/kg oral, read-out: K+ Ratio
[10] = 3 mg/kg oral, read-out: Na+ Ratio
[11] = 3 mg/kg oral, read-out: Volume Ratio

α2 binding activity (in words) (α2)	IC50 (α2) [nM]	IC50 (α1) [nM]	Structure (SMILES)	Urinary Na/K (Test Compound) ([1]; 30 mg/kg oral)	response vs control in vivo at 30 mg/kg [1, 6] [%]	response vs control in vivo at 30 mg/kg [1, 7] [%]	response vs control in vivo at 30 mg/kg [1, 8] [%]	in vivo α blocking activity (in words) [2]	ED50 ([2]; iv)	ΔBP 2 hours ([3]; SHR, 30 mg/kg oral) [mm Hg]	ΔBP 4 hours ([3]; SHR, 30 mg/kg oral) [mm Hg]	ΔHR 2 hours ([3]; SHR, 30 mg/kg oral) [beats per minute]	ΔHR 4 hours ([3]; SHR, 30 mg/kg oral) [beats per minute]	antihypertensive effect (in words) [3]	ΔBP 4 hours ([4]; 30 mg/kg oral) [mm Hg]	ΔHR 4 hours ([4]; 30 mg/kg oral) [beats per minute]	Urinary Na/K (Test Compound) ([1]; 3 mg/kg oral)	response vs control in vivo at 3 mg/kg [1, 9] [%]	response vs control in vivo at 3 mg/kg [1, 10] [%]	response vs control in vivo at 3 mg/kg [1, 11] [%]	further results
α2 binding activity	694	7.62	NS(=O)(=O)c1cc2c(cc1Cl)CN(CCCN1CCN(c3cccc(Cl)c3)CC1)C2=O [Example II, 6-Chloro-2-[3-[4-(3-chlorophenyl)-1-piperazinyl]propyl]-2,3-dihydro-3-oxo-1H-isoindole-5-sulfonamide hydrochloride hemihydrate]	3.41	129	143	117	active as in vivo α blockers	34.0	-23 ± 4	-18 ± 7	-18 ± 10	-4 ± 16	good antihypertensive effect without significantly affecting heart rate	-33 ± 5	22 ± 17	–	–	–	–	Average Dose Shift ([2]; ED50 after/before drug, PE, dose 10, intravenous): > 200
–	1430	4.16	Cc1ccccc1N1CCN(CCCN2Cc3cc(Cl)c(S(N)(=O)=O)cc3C2=O)CC1 [Example IV, 6-Chloro-2,3-dihydro-2-[3-[4-(2-methylphenyl)-1-piperazinyl]propyl]-3-oxo-1H-isoindole-5-sulfonamide]	–	117	121	–	–	–	-48 ± 19	-53 ± 7	-36 ± 5	-22 ± 22	good antihypertensive effect without significantly affecting heart rate	-79 ± 4	18 ± 13	3.49	97	123	104	ΔBP 4 hours ([4]; 0.3 mg/kg oral): -8 ± 3 mm Hg; ΔHR 4 hours ([4]; 0.3 mg/kg oral): 13 ± 21 beats per minute; ΔBP 4 hours ([4]; 3 mg/kg oral): -31 ± 7 mm Hg; ΔHR 4 hours ([4]; 3 mg/kg oral): 22 ± 9 beats per minute
α2 binding activity	666	16	Cl.NS(=O)(=O)c1cc2c(cc1Cl)CN(CCCN1CCN(c3ccccc3)CC1)C2=O.O [Example X, 6-chloro-2,3-dihydro-3-oxo-2-[3-(4-phenyl-1-piperazinyl)propyl]-1H-isoindole-5-sulfonamide hydrochloride hydrate]	2.83	157	163	153	active as in vivo α blockers	45.0	–	–	–	–	good antihypertensive effect without significantly affecting heart rate	–	–	3.19	121	138	124	Average Dose Shift ([2]; iv): 13 ± 2; peak change at 2 hours in ΔBP ([3]; SHR, 30 mg/kg oral): -34 mm Hg
–	–	–	COc1ccccc1N1CCN(CCCCN2Cc3cc(Cl)c(S(N)(=O)=O)cc3C2=O)CC1 [Example XI, 6-Chloro-2,3-dihydro-2-[4-[4-(2-methoxyphenyl)-1-piperazinyl]butyl]-3-oxo-1H-isoindole-5-sulfonamide]	2.62	137	117	94	active as in vivo α blockers	375	-94 ± 10	-60 ± 21	-2 ± 8	-22 ± 14	good antihypertensive effect without significantly affecting heart rate	–	–	3.09	111	113	108	Average Dose Shift ([5]; dose 0.3, intravenous): 5 ± 0.5; Average Dose Shift ([5]; dose 1.0, intravenous): 27 ± 28; Average Dose Shift ([5]; dose 3, intravenous): 63 ± 19
